Results on two compounds are retold here after paper PMC11653251 (2024).

For experiment [1], the system named is (GC)6 (DNA, duplex) GCGCGCGCGCGC
As to the kind of experiment: UV-vis absorption titration, Bard fit. The note with it: K+ (50 mM potassium phosphate), complex 10 μM, average of two titrations, [DNA] per nucleobase (stated for st-DNA).

The test system of experiment [2] is (AT)6 (DNA, duplex) ATATATATATAT
The experiment can be described thus: UV-vis absorption titration, Bard fit. The note with it: K+ (50 mM potassium phosphate), complex 10 μM, average of two titrations, [DNA] per nucleobase (stated for st-DNA).

The structures appear in SMILES notation.

Consider `Cc1cnc2c(ccc3c(C)c(C)cnc32)c1C.Cc1cnc2c(ccc3c(C)c(C)cnc32)c1C.[Cr+3].c1ccc2cc3nc4c5cccnc5c5ncccc5c4nc3cc2c1` [Δ-1], for which the Kb in experiment [1] is reported as 1.17 ± 0.53 × 10^6 M^-1; in experiment [2], 1.13 ± 0.24 × 10^6 M^-1.
As to `Cc1cnc2c(ccc3c(C)c(C)cnc32)c1C.Cc1cnc2c(ccc3c(C)c(C)cnc32)c1C.[Cr+3].c1ccc2cc3nc4c5cccnc5c5ncccc5c4nc3cc2c1` [Λ-1], the Kb is 2.39 ± 0.32 × 10^6 M^-1 in experiment [1] and 11.8 ± 0.35 × 10^6 M^-1 in experiment [2].
